Consider 28 compounds from US20160060260A1, “BROMODOMAIN INHIBITORS FOR TREATING DISEASE” (Board of Regents, The University of Texas System, priority 2014, published 2016).

SMILES strings stand for the structures.

The target in this assay is T1, Recombinant human His-tagged Trim24-PHD-bromodomain (Homo sapiens, UniProt O15164).
T1 construct: Recombinant human His-tagged Trim24-PHD-bromodomain (produced in-house); made in house
T1 sequence (O15164 824-1006 limits assumed): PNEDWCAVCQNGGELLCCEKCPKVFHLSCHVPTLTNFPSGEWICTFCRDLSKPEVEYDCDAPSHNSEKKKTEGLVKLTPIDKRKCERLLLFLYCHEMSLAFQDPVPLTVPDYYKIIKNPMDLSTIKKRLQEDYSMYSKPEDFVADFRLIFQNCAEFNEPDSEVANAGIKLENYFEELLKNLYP
As to the kind of experiment: Trim24 AlphaScreen Assay. The following applies: 5 nM Trim24 protein, 15 nM biotinylated H3K23ac (1-33aa) peptide. The class given is binding. The gist of the method:
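His-tagged Trim24-PHD-bromodomain, biotinylated H3K23ac (1-33aa) peptide and compound incubated 1 h at room temperature in 50 mM Hepes pH 7.5, 100 mM NaCl, 0.12 mM Triton X-100.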
On the technique in general: Bead proximity is the source of the signal in Alpha formats.
By IC50 is commonly meant the concentration at which inhibition is half-maximal. With `Cn1c(=O)n(C)c2cc(Oc3cccc(OCC(F)(F)F)c3)c(NS(=O)(=O)c3c[nH]cn3)cc21` [Example 88, N-(1,3-dimethyl-2-oxo-6-(3-(2,2,2-trifluoroethoxy)phenoxy)-2,3-dihydro-1H-benzo[d]imidazol-5-yl)-1H-imidazole-4-sulfonamide], the IC50 lay in the range of 10 to 100 nM.

For `COCCS(=O)(=O)Nc1cc2c(cc1Oc1cccc(OCC(F)(F)F)c1)n(C)c(=O)n2C` [Example 89, N-(1,3-dimethyl-2-oxco-6-(3-(2,2,2-trifluoroethoxy)phenoxy)-2,3-dihydro-1H-benzo[d]imidazol-5-yl)-2-methoxyethane-1-sulfonamide], the IC50 fell in the range of 100 to 1000 nM.

On to `CCCOc1cc(OCCC)cc(Oc2cc3c(cc2NS(=O)(=O)c2cn(C)c(C)n2)n(C)c(=O)n3C)c1` [Example 90, N-(6-(3,5-dipropoxyphenoxy)-1,3-diemthyl-2-oxo-2,3-dihydro-1H-benzo[d]imidazol-5-yl)-1,2-dimethyl-1H-imidazole-4-sulfonamide], for which the IC50 was 10 to 100 nM.

As for `CCCOc1cccc(Oc2cc3c(cc2NS(=O)(=O)c2cnn(C)c2C)n(C)c(=O)n3C)c1` [Example 91, N-(1,3-dimethyl-2-oxo-6-(3-propoxyphenoxy)-2,3-dihydro-1H-benzo[d]imidazol-5-yl)-1,5-dimethyl-1H-pyrazole-4-sulfonamide], the concentration for half-maximal inhibition (IC50) lay within 10 to 100 nM.

On to `CCCOc1cccc(Oc2cc3c(cc2NS(=O)(=O)c2c(C)n[nH]c2C)n(C)c(=O)n3C)c1` [Example 92, N-(1,3-dimethyl-2-oxo-6-(3-propoxyphenoxy)-2,3-dihydro-1H-benzo[d]imidazol-5-yl)-3,5-dimethyl-1H-pyrazole-4-sulfonamide], for which the IC50 lay within 10 to 100 nM.

As for `CCCOc1cccc(Oc2cc3c(cc2NS(=O)(=O)c2cc(C)nn2C)n(C)c(=O)n3C)c1` [Example 93, N-(1,3-dimethyl-2-oxo-6-(3-propoxyphenoxy)-2,3-dihydro-1H-benzo[d]imidazol-5-yl)-1,3-dimethyl-1H-pyrazole-5-sulfonamide], the IC50 fell in the range of 100 to 1000 nM.

In the case of `CCCOc1cc(OCCCOC)cc(Oc2cc3c(cc2NS(=O)(=O)c2cn(C)c(C)n2)n(C)c(=O)n3C)c1` [Example 94, N-(6-(3-(3-methoxypropoxy)-5-propoxyphenoxy)-1,3-dimethyl-2-oxo-2,3-dihydro-1H-benzo[d]imidazol-5-yl)-1,2-dimethyl-1H-imidazole-4-sulfonamide], the IC50 fell in the range of 10 to 100 nM.

As for `Cn1c(=O)n(C)c2cc(Oc3cccc(OCC(F)(F)F)c3)c(NS(=O)(=O)C3CCOC3)cc21` (stereo not shown) [Example 95, N-(1,3-dimethyl-2-oxo-6-(3-(2,2,2-trifluoroethoxy)phenoxy)-2,3-dihydro-1H-benzo[d]imidazol-5-yl)tetrahydrofuran-3-sulfonamide], the half-maximal inhibitory concentration (IC50) lay in the range of 100 to 1000 nM.

Turning to `COCCCn1cnc(S(=O)(=O)Nc2cc3c(cc2Oc2cccc(OCC(F)(F)F)c2)n(C)c(=O)n3C)c1` [Example 96, N-(1,3-dimethyl-2-oxo-6-(3-(2,2,2-trifluoroethoxy)phenoxy)-2,3-dihydro-1H-benzo[d]imidazol-5-yl)-1-(3-methoxypropyl)-1H-imidazole-4-sulfonamide], the concentration for half-maximal inhibition (IC50) was in the range of 10 to 100 nM.

As to `Cn1cnc(S(=O)(=O)Nc2cc3c(cc2Oc2cccc(OCCCC#N)c2)n(C)c(=O)n3C)c1` [Example 97, N-(6-(3-(3-cyanopropoxy)phenoxy)-1,3-dimethyl-2-oxo-2,3-dihydro-1H-benzo[d]imidazol-5-yl)-1-methyl-1H-imidazole-4-sulfonamide], the IC50 lay in the range of 100 to 1000 nM.

In the case of `CCCOc1cc(OCCCO)cc(Oc2cc3c(cc2NS(=O)(=O)c2cn(C)c(C)n2)n(C)c(=O)n3C)c1` [Example 98, N-(6-(3-(3-hydroxypropoxy)-5-propoxyphenoxy)-1,3-dimethyl-2-oxo-2,3-dihydro-1H-benzo[d]imidazol-5-yl)-1,2-dimethyl-1H-imidazole-4-sulfonamide], the IC50 was 10 to 100 nM.

On to `CCCOc1cccc(Oc2cc3c(cc2NS(=O)(=O)c2cccnc2)n(C)c(=O)n3C)c1` [Example 99, N-(1,3-dimethyl-2-oxo-6-(3-propoxyphenoxy)-2,3-dihydro-1H-benzo[d]imidazol-5-yl)pyridine-3-sulfonamide], for which the 50% inhibitory concentration (IC50) is 10 to 100 nM.

As for `Cn1cnc(S(=O)(=O)Nc2cc3c(cc2Oc2cccc(OCC4CC4)c2)n(C)c(=O)n3C)c1` [Example 100, N-(6-(3-(cyclopropylmethoxy)phenoxy)-1,3-dimethyl-2-oxo-2,3-dihydro-1H-benzo[d]imidazol-5-yl)-1-methyl-1H-imidazole-4-sulfonamide], the IC50 was 10 to 100 nM.

On to `Cn1cc(S(=O)(=O)Nc2cc3c(cc2Oc2cccc(OCC4CC4)c2)n(C)c(=O)n3C)cn1` [Example 101, N-(6-(3-(cyclopropylmethoxy)phenoxy)-1,3-dimethyl-2-oxo-2,3-dihydro-1H-benzo[d]imidazol-5-yl)-1-methyl-1H-pyrazole-4-sulfonamide], for which the IC50 was in the range of 10 to 100 nM.

`Cc1c(S(=O)(=O)Nc2cc3c(cc2Oc2cccc(OCC4CC4)c2)n(C)c(=O)n3C)cnn1C` [Example 102, N-(6-(3-(cyclopropylmethoxy)phenoxy)-1,3-dimethyl-2-oxo-2,3-dihydro-1H-benzo[d]imidazol-5-yl)-1,5-dimethyl-1H-pyrazole-4-sulfonamide]: the IC50 was 10 to 100 nM.

Turning to `CCCOc1cccc(Oc2cc3c(cc2NS(=O)(=O)c2cn(C)cn2)n(C)c(=O)n3C)c1C` [Example 103, N-(1,3-dimethyl-6-(2-methyl-3-propoxyphenoxy)-2-oxo-2,3-dihydro-1H-benzo[d]imidazol-5-yl)-1-methyl-1H-imidazole-4-sulfonamide], the half-maximal inhibitory concentration (IC50) is over 1000 nM.

As to `CCCOc1ccc(F)c(Oc2cc3c(cc2NS(=O)(=O)c2cn(C)cn2)n(C)c(=O)n3C)c1` [Example 104, N-(6-(2-fluoro-5-propoxyphenoxy)-1,3-dimethyl-2-oxo-2,3-dihydro-1H-benzo[d]imidazol-5-yl)-1-methyl-1H-imidazole-4-sulfonamide], the half-inhibitory concentration (IC50) was over 1000 nM.

Take `CCCOc1cc(Oc2cc3c(cc2NS(=O)(=O)c2cn(C)cn2)n(C)c(=O)n3C)ccc1F` [Example 105, N-(6-(4-fluoro-3-propoxyphenoxy)-1,3-dimethyl-2-oxo-2,3-dihydro-1H-benzo[d]imidazol-5-yl)-1-methyl-1H-imidazole-4-sulfonamide]: the IC50 was in the range of 10 to 100 nM.

Turning to `C=CCOc1cccc(S(=O)(=O)Nc2cc3c(cc2Oc2cccc(OCCC)c2)n(C)c(=O)n3C)c1` [Example 106, 3-(allyloxy)-N-(1,3-dimethyl-2-oxo-6-(3-propoxyphenoxy)-2,.3-dihydro-1H-benzo[d]imidazol-5-yl)benzenesulfonamide], the IC50 fell in the range of 100 to 1000 nM.

`CCCOc1cc(C#N)cc(Oc2cc3c(cc2NS(=O)(=O)c2cn(C)c(C)n2)n(C)c(=O)n3C)c1` [Example 107, N-(6-(3-cyano-5-propoxyphenoxy)-1,3-dimethyl-2-oxo-2,3-dihydro-1H-benzo[d]imidazol-5-yl)-1,2-dimethyl-1H-imidazole-4-sulfonamide]: the half-maximal inhibitory concentration (IC50) was 10 to 100 nM.

Turning to `CCCOc1cc(C#N)cc(Oc2cc3c(cc2NS(=O)(=O)c2cn(C)cn2)n(C)c(=O)n3C)c1` [Example 108, N-(6-(3-cyano-5-propoxyphenoxy)-1,3-dimethyl-2-oxo-2,3-dihydro-1H-benzo[d]imidazol-5-yl)-1-methyl-1H-imidazole-4-sulfonamide], the IC50 was in the range of 10 to 100 nM.

Turning to `CCCOc1cc(C#N)cc(Oc2cc3c(cc2NS(=O)(=O)c2ccc(OC)c(OC)c2)n(C)c(=O)n3C)c1` [Example 109, N-(6-(3-cyano-5-propoxyphenoxy)-1,3-dimethyl-2-oxo-2,3-dihydro-1H-benzo[d]imidazol-5-yl)-3,4-dimethoxybenzenesulfonamide], the IC50 is 10 to 100 nM.

Turning to `CCCOc1cccc(Oc2cc3c(cc2NS(=O)(=O)c2cn(C)cn2)n(C)c(=O)n3C)c1Cl` [Example 111, N-(6-(2-chloro-3-propoxyphenoxy)-1,3-dimethyl-2-oxo-2,3-dihydro-1H-benzo[d]imidazol-5-yl)-1-methyl-1H-imidazole-4-sulfonamide], the half-maximal inhibitory concentration (IC50) is over 1000 nM.

Regarding `CCCOc1cc(Oc2cc3c(cc2NS(=O)(=O)c2cn(C)cn2)n(C)c(=O)n3C)ccc1Cl` [Example 112, N-(6-(4-chloro-3-propoxyphenoxy)-1,3-dimethyl-2-oxo-2,3-dihydro-1H-benzo[d]imidazol-5-yl)-1-methyl-1H-imidazole-4-sulfonamide], the IC50 is 100 to 1000 nM.

Consider `CCCOc1ccc(OC)c(Oc2cc3c(cc2NS(=O)(=O)c2cn(C)cn2)n(C)c(=O)n3C)c1` [Example 113, N-(6-(2-methoxy-5-propoxyphenoxy)-1,3-dimethyl-2-oxo-2,3-dihydro-1H-benzo[d]imidazol-5-yl)-1-methyl-1H-imidazole-4-sulfonamide], for which the half-maximal inhibitory concentration (IC50) fell in the range of 100 to 1000 nM.

As for `CCCOc1cc(Oc2cc3c(cc2NS(=O)(=O)c2cn(C)cn2)n(C)c(=O)n3C)ccc1OC` [Example 114, N-(6-(4-methoxy-5-propoxyphenoxy)-1,3-dimethyl-2-oxo-2,3-dihydro-1H-benzo[d]imidazol-5-yl)-1-methyl-1H-imidazole-4-sulfonamide], the IC50 is over 1000 nM.

Consider `Cn1cnc(S(=O)(=O)Nc2cc3c(cc2Oc2cc(OCC4CC4)cc(OCC4CC4)c2)n(C)c(=O)n3C)c1` [Example 117, N-(6-(3,5-bis(cyclopropylmethoxy)phenoxy)-1,3-dimethyl-2-oxo-2,3-dihydro-1H-benzo[d]imidazol-5-yl)-1-methyl-1H-imidazole-4-sulfonamide], for which the IC50 is 10 to 100 nM.

For `CCCOc1cc(OCC2CC2)cc(Oc2cc3c(cc2NS(=O)(=O)c2cccnc2)n(C)c(=O)n3C)c1` [Example 118, N-(6-(3-(cyclopropylmethoxy)-5-propoxyphenoxy)-1,3-dimethyl-2-oxo-2,3-dihydro-1H-benzo[d]imidazol-5-yl)pyridine-3-sulfonamide], the IC50 fell in the range of 10 to 100 nM.
